This note sets out measurements from patent US20090069320A1, “Substituted 4-Amino-Quinazoline Compounds with Metabotropic Glutamate Receptor Regulating Activity and Uses Thereof” (Gruenenthal GmbH, priority 2006, published 2009).

For this test, the target named is T1, mGluR5 receptor (Sus scrofa, UniProt I3LUI7).
T1 construct: 450 μg of protein from brain homogenate with 5 nM ^3[H]-MPEP; from tissue; host or cells: pig brain halves without medulla, cerebellum and pons
The test can be described thus: [3H]-MPEP mGluR5 receptor binding assay (pig brain homogenate). As to conditions: 10 μM compound, 5 nM [3H]-MPEP; for inhibition at 10 µM: read-out: % Inhibition of mGluR5 Receptor (pig) [^3H]-MPEP Bond at 10 μM. Summed up:
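Radioligand displacement of 5 nM [3H]-MPEP from pig brain homogenate (450 μg protein; medulla, cerebellum and pons removed) in 20 mM Hepes pH 8.0. Compounds were tested at 10 μM, incubated 60 min at room temperature, then filtered and counted by scintillation. Non-specific binding was defined with 10 μM MPEP.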

Structures are written as SMILES.

T1 sequence (I3LUI7 19-1212): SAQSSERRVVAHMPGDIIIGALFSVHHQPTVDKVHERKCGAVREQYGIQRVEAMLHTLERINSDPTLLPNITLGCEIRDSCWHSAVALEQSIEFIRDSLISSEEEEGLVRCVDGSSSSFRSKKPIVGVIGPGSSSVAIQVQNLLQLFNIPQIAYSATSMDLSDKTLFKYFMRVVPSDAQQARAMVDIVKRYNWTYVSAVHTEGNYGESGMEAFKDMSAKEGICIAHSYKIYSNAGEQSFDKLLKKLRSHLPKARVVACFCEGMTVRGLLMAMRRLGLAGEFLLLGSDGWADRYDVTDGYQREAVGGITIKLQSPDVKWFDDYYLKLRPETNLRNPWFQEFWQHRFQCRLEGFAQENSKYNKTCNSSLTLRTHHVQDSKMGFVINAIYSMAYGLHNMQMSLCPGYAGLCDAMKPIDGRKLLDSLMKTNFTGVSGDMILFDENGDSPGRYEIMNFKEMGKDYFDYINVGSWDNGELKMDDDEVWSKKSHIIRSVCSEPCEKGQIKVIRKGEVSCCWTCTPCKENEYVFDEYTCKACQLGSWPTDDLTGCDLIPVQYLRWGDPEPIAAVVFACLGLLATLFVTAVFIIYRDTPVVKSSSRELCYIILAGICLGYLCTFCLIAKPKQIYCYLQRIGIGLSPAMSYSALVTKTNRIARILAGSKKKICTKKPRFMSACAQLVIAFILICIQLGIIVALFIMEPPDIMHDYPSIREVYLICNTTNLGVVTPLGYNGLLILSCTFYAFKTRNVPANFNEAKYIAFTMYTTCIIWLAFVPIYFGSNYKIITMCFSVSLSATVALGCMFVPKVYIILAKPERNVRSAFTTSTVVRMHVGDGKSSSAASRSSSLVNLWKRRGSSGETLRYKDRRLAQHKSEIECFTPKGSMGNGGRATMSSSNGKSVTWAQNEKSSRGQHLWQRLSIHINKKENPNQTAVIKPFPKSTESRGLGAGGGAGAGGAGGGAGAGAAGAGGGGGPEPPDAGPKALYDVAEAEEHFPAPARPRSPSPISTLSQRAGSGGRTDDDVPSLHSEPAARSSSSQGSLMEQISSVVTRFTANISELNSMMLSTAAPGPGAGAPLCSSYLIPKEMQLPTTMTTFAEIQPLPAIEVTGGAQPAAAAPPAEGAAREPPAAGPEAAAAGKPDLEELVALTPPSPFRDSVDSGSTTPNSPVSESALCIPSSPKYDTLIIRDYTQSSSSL

As usually defined, the inhibition is the change of the read-out against control, counted positive when it falls. Take `Cc1nc(C(=O)N(Cc2cc(-c3ccc4ncnc(NC(C)(C)C)c4c3)ccc2F)C2CC2)cs1` [Example 825, N-(5-(4-(tert-butylamino)quinazolin-6-yl)-2-fluorobenzyl)-N-cyclopropyl-2-methylthiazole-4-carboxamide]: the inhibition at 10 µM was 97%. As to `CC(C)(C)Nc1ncnc2ccc(-c3ccc(F)c(CN(C(=O)c4ccccn4)C4CC4)c3)cc12` [Example 826, N-(5-(4-(tert-butylamino)quinazolin-6-yl)-2-fluorobenzyl)-N-cyclopropyl picolinamide], the “% Inhibition of mGluR5 Receptor (pig) [^3H]-MPEP Bond at 10 μM” value (“% Inhibition of mGluR5 Receptor (pig)” below) is 98%. Still for that read-out and setting: as for `CC(C)(C)Nc1ncnc2ccc(-c3ccc(F)c(CN(C4CC4)S(C)(=O)=O)c3)cc12` [Example 827, N-(5-(4-(tert-butylamino)quinazolin-6-yl)-2-fluorobenzyl)-N-cyclopropyl methane sulfonamide], the figure is 87%. Turning to `CC(C)(C)C(=O)N(Cc1cc(-c2ccc3ncnc(NC4CC4)c3c2)ccn1)C1CC1` [Example 828, N-cyclopropyl-N-((4-(4-(cyclopropylamino)quinazolin-6-yl)pyridin-2-yl)methyl)pivalamide], the inhibition at 10 µM came to 74%. Same read-out and setting: as for `CCCCC(=O)N(Cc1cc(-c2ccc3ncnc(NC4CC4)c3c2)ccn1)C1CC1` [Example 829, N-cyclopropyl-N-((4-(4-(cyclopropylamino)quinazolin-6-yl)pyridin-2-yl)methyl)pentanamide], the figure is 45%; as for `Cc1nc(C(=O)N(Cc2cccc(-c3cc(F)c4ncnc(NC5CC5)c4c3)c2)C2CC2)cs1` [Example 830, N-cyclopropyl-N-(3-(4-(cyclopropylamino)-8-fluoroquinazolin-6-yl)benzyl)-2-methylthiazole-4-carboxamide], 90%. Regarding `Cc1cc(C(=O)N(Cc2cc(-c3ccc4ncnc(NC(C)(C)C)c4c3)ccc2F)C2CC2)n(C)n1` [Example 831, N-(5-(4-(tert-butylamino)quinazolin-6-yl)-2-fluorobenzyl)-N-cyclopropyl-1,3-dimethyl-1H-pyrazole-5-carboxamide], the inhibition at 10 µM is 84%. Take `CC(C)(C)Nc1ncnc2ccc(-c3ccc(F)c(CN(C(=O)c4ccncc4)C4CC4)c3)cc12` [Example 832, N-(5-(4-(tert-butylamino)quinazolin-6-yl)-2-fluorobenzyl)-N-cyclopropyl isonicotinamide]: the “% Inhibition of mGluR5 Receptor (pig)” value came out at 96%. Still for that read-out and setting: as for `CC(C)(C)Nc1ncnc2ccc(-c3ccc(F)c(CN(C4CC4)S(=O)(=O)Cc4ccccc4)c3)cc12` [Example 833, N-(5-(4-(tert-butylamino)quinazolin-6-yl)-2-fluorobenzyl)-N-cyclopropyl-1-phenyl methane sulfonamide], the figure is 43%; as for `CC(C)(C)Nc1ncnc2ccc(-c3ccc(F)c(CN(C(=O)c4ccno4)C4CC4)c3)cc12` [Example 834, N-(5-(4-(tert-butylamino)quinazolin-6-yl)-2-fluorobenzyl)-N-cyclopropyl isoxazole-5-carboxamide], 42%. Regarding `O=C(C1CCCCC1)N(Cc1cc(-c2ccc3ncnc(NC4CC4)c3c2)ccn1)C1CC1` [Example 835, N-cyclopropyl-N-((4-(4-(cyclopropylamino)quinazolin-6-yl)pyridin-2-yl)methyl)cyclohexane carboxamide], the inhibition at 10 µM was 58%.

For `CC(C)(C)Nc1ncnc2ccc(-c3ccc(F)c(CN(C(=O)c4ccccc4)C4CC4)c3)cc12` [Example 837, N-(5-(4-(tert-butylamino)quinazolin-6-yl)-2-fluorobenzyl)-N-cyclopropyl benzamide], the “% Inhibition of mGluR5 Receptor (pig)” value came to 86%. On the same count and under the same terms, as for `CC(C)(C)Nc1ncnc2ccc(-c3ccc(F)c(CN(C(=O)c4cccnc4)C4CC4)c3)cc12` [Example 838, N-(5-(4-(tert-butylamino)quinazolin-6-yl)-2-fluorobenzyl)-N-cyclopropyl nicotinamide], the figure is 92%. As to `CC(C)(C)Nc1ncnc2ccc(-c3ccc(F)c(CN(C(=O)c4c(F)c(F)c(F)c(F)c4F)C4CC4)c3)cc12` [Example 840, N-(5-(4-(tert-butylamino)quinazolin-6-yl)-2-fluorobenzyl)-N-cyclopropyl-2,3,4,5,6-pentafluorobenzamide], the inhibition at 10 µM was 74%. Regarding `O=C(Cc1ccccc1)N(Cc1cc(-c2ccc3ncnc(NC4CC4)c3c2)ccn1)C1CC1` [Example 841, N-cyclopropyl-N-((4-(4-(cyclopropylamino)quinazolin-6-yl)pyridin-2-yl)methyl)-2-phenylacetamide], the inhibition at 10 µM was 36%. On the same count and under the same terms, as for `COc1ccc(C(=O)N(Cc2cc(-c3ccc4ncnc(NC(C)(C)C)c4c3)ccc2F)C2CC2)cc1OC` [Example 843, N-(5-(4-(tert-butylamino)quinazolin-6-yl)-2-fluorobenzyl)-N-cyclopropyl-3,4-dimethoxybenzamide], the figure is 71%. On to `CC(=O)N(Cc1cc(-c2ccc3ncnc(NC(C)(C)C)c3c2)ccc1F)C1CC1` [Example 844, N-(5-(4-(tert-butylamino)quinazolin-6-yl)-2-fluorobenzyl)-N-cyclopropyl acetamide], for which the “% Inhibition of mGluR5 Receptor (pig)” value is recorded as 94%.

Regarding `COCC(=O)N(Cc1cc(-c2ccc3ncnc(NC(C)(C)C)c3c2)ccc1F)C1CC1` [Example 846, N-(5-(4-(tert-butylamino)quinazolin-6-yl)-2-fluorobenzyl)-N-cyclopropyl-2-methoxyacetamide], the inhibition at 10 µM was found to be 82%. Same read-out and setting: as for `O=C(CCc1ccccc1)N(Cc1cc(-c2ccc3ncnc(NC4CC4)c3c2)ccn1)C1CC1` [Example 847, N-cyclopropyl-N-((4-(4-(cyclopropylamino)quinazolin-6-yl)pyridin-2-yl)methyl)-3-phenylpropanamide], the figure is 43%. For the compound `O=S(=O)(c1c(F)c(F)c(F)c(F)c1F)N(Cc1cc(-c2ccc3ncnc(NC4CC4)c3c2)ccn1)C1CC1` [Example 848, N-cyclopropyl-N-((4-(4-(cyclopropylamino)quinazolin-6-yl)pyridin-2-yl)methyl)-2,3,4,5,6-pentafluorobenzole sulfonamide], the “% Inhibition of mGluR5 Receptor (pig)” value is 53%.

`CC(C)(C)Nc1ncnc2ccc(-c3ccc(F)c(CN(C(=O)c4cccc(F)c4)C4CC4)c3)cc12` [Example 849, N-(5-(4-(tert-butylamino)quinazolin-6-yl)-2-fluorobenzyl)-N-cyclopropyl-3-fluorobenzamide]: the inhibition at 10 µM stood at 86%. For `CC(C)(C)Nc1ncnc2ccc(-c3ccc(F)c(CN(C(=O)C(C)(C)C)C4CC4)c3)cc12` [Example 850, N-(5-(4-(tert-butylamino)quinazolin-6-yl)-2-fluorobenzyl)-N-cyclopropyl pivalamide], the “% Inhibition of mGluR5 Receptor (pig)” value is reported as 83%. On the same count and under the same terms, then `CNc1ncnc2ccc(-c3cccc(CN(c4ccccc4F)S(=O)(=O)c4ccccc4)c3)cc12` [Example 852, N-(2-fluorophenyl)-N-(3-(4-(methylamino)quinazolin-6-yl)benzyl)benzole sulfonamide], with 49%.

`CS(=O)(=O)N(Cc1cc(-c2ccc3ncnc(NC4CC4)c3c2)ccn1)C1CC1` [Example 853, N-cyclopropyl-N-((4-(4-(cyclopropylamino)quinazolin-6-yl)pyridin-2-yl)methyl)methane sulfonamide]: the inhibition at 10 µM was 67%.
